Test results as given in PMC5118987 (Antimicrobial Agents and Chemotherapy, 2016).
Where two headings read alike, the source gives them in different places.

Columns and labels:
[1] = system: NRTI-, NNRTI- and PI-Resistant HIV-1 Mutants; assay: Antiviral activity against NRTI-, NNRTI- and PI-resistant HIV-1 mutants; format: cell-based; settings: for EC50: Human immunodeficiency virus 1, WT, Table S7
HIV-1 BaL = settings: primary CD4+ T-cells, 35 days, drug at tissue culture equivalent clinical Cmin (FTC 160 × EC50)
[2] = system: HIV-1 integration in MT-2 cells (HIV-1 IIIb); settings: relative to DMSO; for Late reverse transcription products (fold change): HIV-1 IIIb-infected MT-2, compound >20-fold EC50, 12 h; for Alu-LTR integration junctions (fold change) / Integration failure of 2-LTR circles (fold change): HIV-1 IIIb-infected MT-2, compound >20-fold EC50, 24 h
Protocol: Quantification of 2-long terminal repeat (LTR) circles, late reverse transcription products, and integration junctions was adapted from a previously described method ([30]). […] Three hours after viral adsorption, the infected cells were washed twice with 20 ml of RPMI 1640 medium containing 10% FBS and antibiotics and seeded in 6-well plates in 2 ml of culture medium at 1 × 10^6 cells per well. […] These plates were incubated at 37°C for either 12 h (for late reverse transcription product quantification) or 24 h (for 2-LTR circle and Alu-LTR product quantification), after which time the cells were harvested for total DNA isolation. DNA was extracted from each well using the QIAamp DNA minikit (Qiagen, Valencia, CA) and collected as a 100-μl eluate. TaqMan real-time PCR-quantified 2-LTR junctions (2-LTR circles), late reverse transcription products, and integration junctions (Alu-LTR) were normalized to the level of host globin gene in each sample. Quantification by PCR was performed on the ViiA 7 real-time PCR system (Life Technologies, Grand Island, NY).

[3] = system: INSTI-resistant HIV-1 mutants (HXB2); assay: microbe, parasite or virus in culture; format: cell-based
[4] = system: inhibitor-selected HIV-1 IIIb passages; assay: Phenotypic profile of selected HIV-1 passages; format: cell-based; settings: for EC50: Human immunodeficiency virus 1, IIIB
HIV-1 IIIb [5] = assay: Antiviral assay in MT-2 cells; format: cell-based; settings: Human immunodeficiency virus 1, IIIB, MT2; Table S9 footnote b; read-out: EC50 previously determined (start of resistance selection at twice the EC50)
Protocol: For the antiviral assay utilizing MT-2 and MT-4 cells, 50 μl of a 2× test concentration of 5-fold serially diluted compound in culture medium with 10% FBS was added to each well of a 96-well plate (9 concentrations) in triplicate. MT-2 and MT-4 cells were infected with HIV-1 IIIb at a multiplicity of infection (MOI) of 0.01 for 3 h. Fifty microliters of infected cell suspension in culture medium with 10% FBS (∼1.5 × 10^4 cells) then was added to each well containing 50 μl of diluted compound. The plates were then incubated at 37°C for 5 days. After 5 days of incubation, 100 μl of CellTiter-Glo reagent (Promega Biosciences, Inc., Madison, WI) was added to each well containing MT-2 or MT-4 cells. Cell lysis was carried out by incubation at room temperature for 10 min and chemiluminescence was read. For compound cytotoxicity assessment, the protocol was identical except that uninfected cells were used and compounds were serially diluted 3-fold.

HIV-1 IIIb [6] = assay: HIV breakthrough selection in MT-2 cells; settings: MT-2, HIV-1 IIIb; FTC 4× EC95, EVG 5× EC95, BIC and DTG 2.5× and 5× EC95; up to day 32
[7] = Cytotoxicity in AD38 cells; settings: human
HBV Production = assay: microbe, parasite or virus in culture; settings: Hepatitis B virus
in vitro = settings: human, CC50 in Primary Human Hepatocytes
[8] = 480 h, selected virus EVG P2 (day 20, 7.2 nM)
[9] = selected virus BIC P3 (day 47, 6 nM)
[10] = selected virus BIC P5 (day 71, 12 nM)
[11] = selected virus BIC P6 (day 86, 24 nM)
[12] = selected virus BIC P8 (day 156, 96 nM)
[13] = selected virus BIC P9 (day 181, 192 nM)
[14] = selected virus BIC P10 (day 234, 384 nM)
[15] = selected virus DTG P3Lo (day 59, 6.4 nM)
[16] = selected virus DTG P4 (day 87, 9.6 nM)
[17] = selected virus DTG P5 (day 97, 14.4 nM)
[18] = selected virus DTG P7 (day 139, 32.4 nM)
[19] = selected virus DTG P9 (day 174, 72.9 nM)
[20] = selected virus DTG P10 (day 202, 109.4 nM)
[21] = selected virus EVG P4 (day 41, 28.8 nM)
[22] = selected virus EVG P6 (day 56, 115 nM)
[23] = selected virus EVG P7 (day 67, 230 nM)
[24] = selected virus EVG P9 (day 94, 922 nM)
[25] = selected virus EVG P10 (day 119, 1843 nM)

For `COC(=O)N[C@H](C(=O)N[C@@H](Cc1ccccc1)[C@@H](O)CN(Cc1ccc(-c2ccccn2)cc1)NC(=O)[C@@H](NC(=O)OC)C(C)(C)C)C(C)(C)C` [ATV, atazanavir], the EC50 [1] was 1.6 ± 0.9 nM, the “Frequency of Viral Breakthrough with RAMs” value (“Frequency” below) (HIV-1 BaL) was 0% and the “p24+ Wells” value (HIV-1 BaL) was 0/24.
In the case of `CC(C)CN(C[C@@H](O)[C@H](Cc1ccccc1)NC(=O)O[C@H]1CO[C@H]2OCC[C@H]21)S(=O)(=O)c1ccc(N)cc1` [DRV, darunavir], the EC50 [1] is reported as 3.5 ± 1.6 nM, the “Late reverse transcription products (fold change)” value [2] is reported as 0.96 ± 0.11 fold change and the “Alu-LTR integration junctions (fold change)” value [2] is reported as 0.72 ± 0.31 fold change. For the same compound, the “Integration failure of 2-LTR circles (fold change)” value [2] was 0.57 ± 0.24 fold change.
With `O=C1Nc2ccc(Cl)cc2[C@@](C#CC2CC2)(C(F)(F)F)O1` [EFV, efavirenz] the EC50 ([3]; Human immunodeficiency virus 1, HXB2, IN mutant E92Q) was 1.5 ± 0.3 nM, the EC50 ([3]; Human immunodeficiency virus 1, HXB2, IN mutant E92Q/N155H) was 1.5 ± 0.4 nM and the EC50 ([3]; Human immunodeficiency virus 1, HXB2, IN mutant E138K/Q148K) was 1.9 ± 0.4 nM. For the same compound, the EC50 ([3]; Human immunodeficiency virus 1, HXB2, IN mutant G140S/Q148R) was 1.5 ± 0.3 nM, the EC50 ([3]; Human immunodeficiency virus 1, HXB2, IN mutant M50I (BIC/DTG selection)) was 1.1 ± 0.4 nM and the EC50 ([3]; Human immunodeficiency virus 1, HXB2, IN mutant M50I/R263K (BIC selection)) was 1 ± 0.3 nM. The EC50 ([3]; Human immunodeficiency virus 1, HXB2, IN mutant M50I/S119R/R263K (DTG selection)) was 3.2 ± 1.8 nM, the EC50 ([3]; Human immunodeficiency virus 1, HXB2, IN mutant N155H) was 1.6 ± 0.05 nM and the EC50 ([3]; Human immunodeficiency virus 1, HXB2, IN mutant N155H/Q148R) was 2.2 ± 0.8 nM. For the same compound, the EC50 ([3]; Human immunodeficiency virus 1, HXB2, IN mutant Q148R) was 1.7 ± 0.1 nM, the EC50 ([3]; Human immunodeficiency virus 1, HXB2, IN mutant R263K (BIC/DTG selection), Table 7) was 1 ± 0.4 nM and the EC50 ([3]; Human immunodeficiency virus 1, HXB2, IN mutant R263K, Table 6) was 1.8 ± 0.3 nM. The EC50 ([3]; Human immunodeficiency virus 1, HXB2, IN mutant S119R (DTG selection)) was 2.1 ± 1.1 nM, the EC50 ([3]; Human immunodeficiency virus 1, HXB2, IN mutant S119R/R263K (DTG selection)) was 2.1 ± 1 nM and the EC50 ([3]; Human immunodeficiency virus 1, HXB2, IN mutant S153Y (DTG selection)) was 2.2 ± 1.1 nM. The EC50 ([3]; Human immunodeficiency virus 1, HXB2, IN mutant S153Y/R263K (DTG selection)) was 2 ± 0.7 nM, the EC50 ([3]; Human immunodeficiency virus 1, HXB2, IN mutant Y143R) was 1.7 ± 0.1 nM and the EC50 ([3]; Human immunodeficiency virus 1, HXB2, WT (HXB2), Table 6, read-out: EC50) was 1.9 ± 0.3 nM. For the same compound, the EC50 ([3]; Human immunodeficiency virus 1, HXB2, WT (HXB2), Table 7, read-out: EC50) was 1.2 ± 0.4 nM, the “Fold-Resistance Relative to HIV-1 IIIb” value ([4]; HIV-1-IIIb (reference)) was 1 fold and the EC50 [4, 8] was 3 nM. It also gave an EC50 ([4]; HIV-1-IIIb (unselected)) of 1.6 nM, an EC50 [4, 9] of 1.6 nM and an EC50 [4, 10] of 1.2 nM. For the same compound, the EC50 [4, 11] was 1.3 nM, the EC50 [4, 12] was 1.7 nM and the EC50 [4, 13] was 2.8 nM. For the same compound, the EC50 [4, 14] was 2.7 nM, the EC50 [4, 15] was 1.2 nM and the EC50 [4, 16] was 1.8 nM. The EC50 [4, 17] was 1.7 nM, the EC50 [4, 18] was 2.3 nM and the EC50 [4, 19] was 2.1 nM. It also gave an EC50 [4, 20] of 2.8 nM, an EC50 [4, 21] of 2.8 nM and an EC50 [4, 22] of 2.4 nM. For the same compound, the EC50 [4, 23] was 3.6 nM, the EC50 [4, 24] was 3.2 nM and the EC50 [4, 25] was 2 nM. The “Fold-Resistance Relative to HIV-1 IIIb” value ([4]; selected virus BIC P3) was 1 fold, the “Fold-Resistance Relative to HIV-1 IIIb” value ([4]; selected virus BIC P5) was 0.8 fold and the “Fold-Resistance Relative to HIV-1 IIIb” value ([4]; selected virus BIC P6) was 0.8 fold. For the same compound, the “Fold-Resistance Relative to HIV-1 IIIb” value ([4]; selected virus BIC P8) was 1.1 fold, the “Fold-Resistance Relative to HIV-1 IIIb” value ([4]; selected virus BIC P9) was 1.8 fold and the “Fold-Resistance Relative to HIV-1 IIIb” value ([4]; selected virus BIC P10) was 1.7 fold. The “Fold-Resistance Relative to HIV-1 IIIb” value ([4]; selected virus DTG P3Lo) was 0.8 fold, the “Fold-Resistance Relative to HIV-1 IIIb” value ([4]; selected virus DTG P4) was 1.1 fold and the “Fold-Resistance Relative to HIV-1 IIIb” value ([4]; selected virus DTG P5) was 1.0 fold. For the same compound, the “Fold-Resistance Relative to HIV-1 IIIb” value ([4]; selected virus DTG P7) was 1.4 fold, the “Fold-Resistance Relative to HIV-1 IIIb” value ([4]; selected virus DTG P9) was 1.3 fold and the “Fold-Resistance Relative to HIV-1 IIIb” value ([4]; selected virus DTG P10) was 1.8 fold. The “Fold-Resistance Relative to HIV-1 IIIb” value ([4]; selected virus EVG P2) was 1.8 fold, the “Fold-Resistance Relative to HIV-1 IIIb” value ([4]; selected virus EVG P4) was 1.7 fold and the “Fold-Resistance Relative to HIV-1 IIIb” value ([4]; selected virus EVG P6) was 1.5 fold. For the same compound, the “Fold-Resistance Relative to HIV-1 IIIb” value ([4]; selected virus EVG P7) was 2.2 fold, the “Fold-Resistance Relative to HIV-1 IIIb” value ([4]; selected virus EVG P9) was 2.0 fold and the “Fold-Resistance Relative to HIV-1 IIIb” value ([4]; selected virus EVG P10) was 1.2 fold. For the same compound, the EC50 [1] was 1.2 ± 0.4 nM, the “EC50 Fold Change Relative to WT” value ([1]; NNRTI resistant L100I K103N) was > 83 fold change and the “Frequency” value (HIV-1 BaL) was 17%. For the same compound, the “p24+ Wells” value (HIV-1 BaL) was 2/12, the “Late reverse transcription products (fold change)” value [2] was 0.21 ± 0.07 fold change and the “Alu-LTR integration junctions (fold change)” value [2] was 0.10 ± 0.05 fold change. For the same compound, the “Integration failure of 2-LTR circles (fold change)” value [2] was 0.05 ± 0.04 fold change.
With `COc1cc2c(cc1Cc1cccc(Cl)c1F)c(=O)c(C(=O)O)cn2[C@H](CO)C(C)C` [EVG, elvitegravir] the EC50 (HIV-1 IIIb [5]) was 1.8 nM, the EC50 [4, 8] was 17.8 nM and the EC50 ([4]; HIV-1-IIIb (unselected)) was 2.1 nM. The EC50 [4, 9] was 5.1 nM, the EC50 [4, 10] was 8.3 nM and the EC50 [4, 11] was 7.8 nM. The EC50 [4, 12] was 33.6 nM, the EC50 [4, 13] was 55 nM and the EC50 [4, 14] was 33 nM. It also gave an EC50 [4, 15] of 1.7 nM, an EC50 [4, 16] of 5 nM and an EC50 [4, 17] of 9.3 nM. The EC50 [4, 18] was 15.5 nM, the EC50 [4, 19] was 25.1 nM and the EC50 [4, 20] was 69.2 nM. For the same compound, the EC50 [4, 21] was 30.2 nM, the EC50 [4, 22] was 48.9 nM and the EC50 [4, 23] was 203 nM. It also gave an EC50 [4, 24] of 296 nM, an EC50 [4, 25] of 246 nM and an EC50 [1] of 2.5 ± 1.5 nM. The “day postinfection of HIV-1 breakthrough” value (HIV-1 IIIb [6]) was 22 days, the “Frequency” value (HIV-1 BaL) was 54% and the “p24+ Wells” value (HIV-1 BaL) was 23/24.
With `Nc1nc(=O)n([C@@H]2CS[C@H](CO)O2)cc1F` [FTC, emtricitabine] the EC50 [1] was 385 ± 225 nM, the “EC50 Fold Change Relative to WT” value ([1]; NRTI resistant 6TAMs) was 10.8 fold change and the CC50 at 5 days [7] was > 50 µM. For the same compound, the EC50 (HBV Production) was 20 nM, the “day postinfection of HIV-1 breakthrough” value (HIV-1 IIIb [6]) was 7 days and the “Frequency” value (HIV-1 BaL) was 58%. For the same compound, the “p24+ Wells” value (HIV-1 BaL) was 14/24.
`COc1ccc(C[C@H](N)C(=O)N[C@H]2[C@@H](O)[C@H](n3cnc4c(N(C)C)ncnc43)O[C@@H]2CO)cc1` [Puromycin] showed a CC50 (in vitro; Donor 1) of 1200 nM and a CC50 (in vitro; Donor 2) of 830 nM.
For `Cc1cc(/C=C/C#N)cc(C)c1Nc1ccnc(Nc2ccc(C#N)cc2)n1` [RPV, rilpivirine], the EC50 [1] was 0.8 ± 0.4 nM, the “EC50 Fold Change Relative to WT” value ([1]; NNRTI resistant L100I K103N) was 21.9 fold change and the “Frequency” value (HIV-1 BaL) was 25%. For the same compound, the “p24+ Wells” value (HIV-1 BaL) was 6/24.
With `C[C@H](Cn1cnc2c(N)ncnc21)OCP(=O)(O)O` [TFV, tenofovir] the EC50 [1] was 3720 nM, the “EC50 Fold Change Relative to WT” value ([1]; NRTI resistant 6TAMs) was 7.1 fold change and the CC50 at 5 days [7] was > 50 µM. For the same compound, the EC50 (HBV Production) was 360 nM.
